From ChEMBL document CHEMBL3880395, “Novel compounds and methods of use thereof” (2003)
Calls of active or inactive are those of the source. No cut-off for these calls is given here.

Key:
Rattus norvegicus [1] = organism: Rattus norvegicus; assay: Antiangiogenic activity in Sprague-Dawley rat thoracic aortic rings assessed as inhibition of capillary like tube formation at 0.3 ug/ml for 5 days by MTT/MTS assay; format: functional; details: Thoracic aorta
Rattus norvegicus [2] = organism: Rattus norvegicus; assay: Antiangiogenic activity in Sprague-Dawley rat thoracic aortic rings assessed as inhibition of capillary like tube formation at 1 ug/ml for 5 days by MTT/MTS assay; format: functional; details: Thoracic aorta
P388 = assay: Anticancer activity against mouse P388 cells implanted in po dosed DBA/2J mouse assessed as increase in life span administered daily for 4 days measured twice daily during compound dosing; format: functional, organism-based
[3] = Toxicity in DBA/2J mouse implanted with mouse P388 cells assessed as body weight loss at 25 to 400 mg/kg, po administered daily for 4 days measured twice daily during compound dosing; format: organism-based; details: in vivo, 96 h
[4] = Cytotoxicity against human HONE1 cells assessed as reduction in cell growth after 72 hrs by MTS assay; format: functional, cell-based; details: HONE1, 72 h
[5] = Anticancer activity against mouse P388 cells implanted in DBA/2J mouse assessed as increase in life span at 200 mg/kg, po administered daily for 4 days measured twice daily during compound dosing; format: functional; details: 96 h
[6] = Toxicity in DBA/2J mouse implanted with mouse P388 cells assessed as body weight loss at 5 to 400 mg/kg, po administered daily for 4 days measured twice daily during compound dosing; format: organism-based; details: in vivo, 96 h
[7] = Toxicity in athymic nude mouse xenografted in human SW480 cells xenografted assessed as body weight loss at 200 mg/kg, administered via oral gavage daily for 6 weeks measured twice per every week for 70 days; format: organism-based; details: in vivo, 1680 h

Structure (SMILES)	inhibition (Rattus norvegicus [1])	also measured
O=C(Nc1ccc2ncccc2c1)C(=O)c1cn(Cc2cscn2)c2ccccc12	Active	–
Cc1cc(NC(=O)C(=O)c2cn(Cc3ccsc3)c3ccccc23)sn1	Active	–
O=C(Nc1ccncc1)C(=O)c1cn(Cc2ccc(Cl)cc2)c2ccccc12	–	inhibition (Rattus norvegicus [2]): Active
O=C(Nc1ccc2ncccc2c1)C(=O)c1cn(Cc2ccco2)c2ccccc12	Active	–
Cc1cc(NC(=O)C(=O)c2cn(Cc3ccno3)c3ccccc23)sn1	Active	–
N#Cc1ccc(Cn2cc(C(=O)C(=O)Nc3ccc(I)cc3)c3ccccc32)cc1	Active	–
COc1ccc(NC(=O)C(=O)c2cn(Cc3ccccc3C#N)c3ccccc23)cc1	Active	–
Cc1cc(NC(=O)C(=O)c2cn(Cc3ccc(C#N)cc3)c3ccccc23)sn1	Active	ILS (P388): Dose-dependent effect; Activity [3]: Non-Toxic
Cc1cc(Cn2cc(C(=O)C(=O)Nc3ccc(Br)cc3)c3ccccc32)on1	Active	–
CCc1cc(Cn2cc(C(=O)C(=O)Nc3cc(C)ns3)c3ccccc32)on1	Active	–
Cc1cc(Cn2cc(C(=O)C(=O)Nc3cc(C)ns3)c3ccccc32)on1	Active	IC50 [4]: 3 to 4 nM; ILS at 200 mg/kg [5]: 100%; ILS (P388): Dose-dependent effect; Activity [6]: Non-Toxic; Activity [7]: Non-Toxic
Cc1cc(NC(=O)C(=O)c2cn(Cc3ccco3)c3ccccc23)sn1	Active	–
Cc1cc(NC(=O)C(=O)c2cn(Cc3cccs3)c3ccccc23)sn1	–	inhibition (Rattus norvegicus [2]): Active
N#Cc1ccc(Cn2cc(C(=O)C(=O)Nc3ccc4ncccc4c3)c3ccccc32)cc1	Active	–
O=C(Nc1ccc2ncccc2c1)C(=O)c1cn(Cc2ccsc2)c2ccccc12	–	ILS (P388): Dose-dependent effect; Activity [3]: Non-Toxic
Cc1cc(NC(=O)C(=O)c2cn(Cc3cc(C(C)C)no3)c3ccccc23)sn1	Active	–
Cc1cc(Cn2cc(C(=O)C(=O)Nc3ccc4ncccc4c3)c3ccccc32)on1	Active	–
